The test concerns Plasmodium berghei. The test is described as follows: Luciferase/luciferin-expressing antifolate-resistant parasites were used to infect a culture of HepG2 cells that were pre-incubated with compounds. Infected hepatocytes emit light due to the luciferase reaction. Assay results are presented as the percent inhibition of light emission compared to control. […]. In kind it is functional. To be noted: sporozoite; for IC90: read-out: LUCIFERASE INFECTION ASSAY - IC90.

[1] abbreviates: read-out: LUCIFERASE INFECTION ASSAY - IC50.

Drawing on ChEMBL document CHEMBL4483862, “Open-source discovery of chemical leads for next-generation chemoprotective antimalarials” (2018), this text covers IC50 and IC90 for 43 molecules.

By IC50 is commonly meant the concentration needed to halve the response being measured. Usually IC90 stands for the concentration at which the effect reaches the 90% level. In the case of `CC(C)(C)c1ccc(-c2ccc(OCCCc3ccccn3)nc2)cc1`, the IC90 is above 9.52 µM. In addition, the IC50 (HEPG2TOX_HILL_SLOPE 3.23, HEPG2TOX_R_SQUARED 0.98, PBLUC_HILL_SLOPE 2.82, PBLUC_R_SQUARED 0.72, read-out: LUCIFERASE INFECTION ASSAY - IC50) was determined as 6.22 µM.

On to `O=C(Nc1ccc(OC(F)(F)F)cc1)Nc1cncc(C(F)(F)F)c1`, for which the IC90 was 6.72 µM. Besides, the IC50 (FFLUC_HILL_SLOPE 0.707, FFLUC_R_SQUARED 0.204, PBLUC_HILL_SLOPE 4.06, PBLUC_R_SQUARED 0.292, read-out: LUCIFERASE INFECTION ASSAY - IC50) was found to be 3.91 µM.

With `Cc1ccc(NC(=S)NCc2ccccn2)cc1C`, the IC90 is above 12.2 µM. The IC50 under setting [1] is above 12.2 µM.

`N#CCc1c(C#N)c(N)nc(Nc2ccc(F)cc2F)c1C#N`: the IC90 was 6.78 µM. Under setting [1], the half-inhibitory concentration (IC50) turned out to be 3.64 µM.

On to `COc1cc(OC)cc(-c2cn3c(-c4cccc(OC(F)(F)F)c4)cnc3cn2)c1`, for which the IC90 is above 7.94 µM. Under “PBLUC_HILL_SLOPE 10.9, PBLUC_R_SQUARED 0.156, read-out: LUCIFERASE INFECTION ASSAY - IC50”, the IC50 is above 7.94 µM.

Consider `O=c1[nH]c2ccccc2c(=O)n1CC1(N2CCCCC2)CCCCC1`, for which the IC90 was above 10 µM. Further, the IC50 under setting [1] was above 10 µM.

With `CN(C)C(CNC(=O)c1ccc(COc2ccccc2)cc1)Cc1ccccc1` (stereo unspecified), the IC90 is above 10 µM. Further, the IC50 (PBLUC_HILL_SLOPE 1.49, PBLUC_R_SQUARED 0.218, read-out: LUCIFERASE INFECTION ASSAY - IC50) came to 7.64 µM.

On to `c1ccc(-c2csc3nc(-c4ccccn4)nc(Sc4nnc(-c5ccco5)o4)c23)cc1`, for which the concentration for an effect of 90% (IC90) was above 10 µM. Moreover, under setting [1], the IC50 was above 10 µM.

Regarding `O=C(CSc1nnc(-c2ccco2)n1-c1ccc(OCc2ccccc2)cc1)c1ccc(Cl)cc1`, the IC90 is above 6.57 µM. The IC50 under setting [1] was above 6.57 µM.

Take `CC(c1nc(=O)c2c(-c3ccccc3)csc2[nH]1)N(C)Cc1ccccc1N1CCCC1` (stereo unspecified): the IC90 was above 10 µM. Also, under setting [1], the IC50 is above 10 µM.

For the molecule `CN(C)S(=O)(=O)c1ccc(SCC(=O)c2ccc(C(C)(C)C)cc2)nc1`, the IC90 turned out to be 5.05 µM. Also, the 50% inhibitory concentration (IC50) (PBLUC_HILL_SLOPE 8.24, PBLUC_R_SQUARED 0.558, read-out: LUCIFERASE INFECTION ASSAY - IC50) is 3.87 µM.

With `O=C(Cc1c(F)cccc1Cl)Nc1ccccc1-c1nc2ccccc2[nH]1`, the IC90 was 7.35 µM. Also, the IC50 under setting [1] worked out at 1.73 µM.

Consider `Cc1ccc(C(=O)C(C)Oc2ccc(NC(=O)c3cccs3)cc2)cc1` (stereo unspecified), for which the IC90 is 1.47 µM. In addition, the IC50 (PBLUC_HILL_SLOPE 1.89, PBLUC_R_SQUARED 0.795, read-out: LUCIFERASE INFECTION ASSAY - IC50) is 0.461 µM.

Take `CCOC(=O)c1ccc(Oc2sccc2[N+](=O)[O-])cc1`: the IC90 is above 11.3 µM. Moreover, the IC50 under setting [1] is above 11.3 µM.

In the case of `COc1ccc(S(=O)(=O)NC(C)(C)C)cc1C(C)(C)C`, the IC90 was above 3.33 µM. Besides, the IC50 (PBLUC_HILL_SLOPE 0.386, PBLUC_R_SQUARED 0.474, read-out: LUCIFERASE INFECTION ASSAY - IC50) was determined as 0.196 µM.

Consider `O=C(Nc1ncc(Cc2cc(F)cc(F)c2)s1)c1ccc2nc[nH]c2c1`, for which the IC90 is 6.19 µM. Under setting [1], the concentration for half-maximal inhibition (IC50) was 2.9 µM.

As for `CN(C1CCCCCC1)S(=O)(=O)c1ccc(-n2ncc(Cl)c(Cl)c2=O)cc1`, the IC90 was 5.25 µM. Besides, the IC50 under setting [1] was found to be 3.55 µM.

On to `C=Cc1c(SC)sc(C(=O)O)c1C`, for which the IC90 was above 15.4 µM. Further, the IC50 under setting [1] was above 15.4 µM.

For `O=C1OC(c2ccccc2)=N/C1=C\c1ccc([N+](=O)[O-])s1`, the IC90 is above 11 µM. Moreover, the concentration for half-maximal inhibition (IC50) under setting [1] is above 11 µM.

For `CC(C)c1ccc(-n2c(SCc3ccc(Cl)cc3)nnc2-c2ccc(C(C)(C)C)cc2)cc1`, the IC90 was above 6.93 µM. The IC50 under setting [1] is above 6.93 µM.

With `CCCS(=O)(=O)/C(C#N)=C/c1ccc(-c2ccc(OC)cc2)s1`, the IC90 amounted to 2.37 µM. In addition, under setting [1], the IC50 was 1.09 µM.

In the case of `COc1cccc(-c2ccnc3n[nH]c(-c4cccc(C(F)(F)F)c4)c23)c1`, the IC90 is above 10 µM. The IC50 under setting [1] was above 10 µM.

Take `O=C1CCc2cc(-c3csc(NC(=O)c4ccc(-n5cnc6ccccc65)cc4)n3)ccc2N1`: the IC90 was determined as 3.68 µM. The IC50 (PBLUC_HILL_SLOPE 2.11, 11.5, PBLUC_R_SQUARED 0.409, 0.367, read-out: LUCIFERASE INFECTION ASSAY - IC50) turned out to be 3.63 µM.

`N#Cc1c(N)nc2c(c1N)C(C(C#N)C#N)c1cc(Br)ccc1O2` (stereo unspecified): the IC90 was above 8.66 µM. Moreover, under “FFLUC_HILL_SLOPE 1.21, FFLUC_R_SQUARED 0.243, read-out: LUCIFERASE INFECTION ASSAY - IC50”, the IC50 was above 8.66 µM.

Turning to `Cn1c(N)c(C(=O)COC(=O)c2c3c(nc4ccccc24)/C(=C/c2ccc(O)cc2)CCC3)c(=O)n(C)c1=O`, the IC90 came to 6.45 µM. In addition, under setting [1], the IC50 was determined as 2.66 µM.

Regarding `c1ccc(-c2nc(NCCCN3CCOCC3)c3cc(-c4ccccc4)sc3n2)cc1`, the IC90 is above 10 µM. Further, the IC50 (PBLUC_HILL_SLOPE 16.1, PBLUC_R_SQUARED 0.337, read-out: LUCIFERASE INFECTION ASSAY - IC50) was determined as 9.75 µM.

Regarding `CN(C)c1ccc(/C=C/c2cccc[n+]2C)cc1`, the IC90 is above 9.01 µM. Besides, the IC50 (HEPG2TOX_HILL_SLOPE 3.15, HEPG2TOX_R_SQUARED 0.984, PBLUC_HILL_SLOPE 12.7, PBLUC_R_SQUARED 0.413, read-out: LUCIFERASE INFECTION ASSAY - IC50) is 7.92 µM.

For the molecule `CC1CCc2ccccc2N1CC(=O)c1cccn1C` (stereo unspecified), the IC90 was above 10 µM. For the same molecule, the IC50 (HEPG2TOX_HILL_SLOPE 5.07, HEPG2TOX_R_SQUARED 0.0101, read-out: LUCIFERASE INFECTION ASSAY - IC50) is above 10 µM.

On to `CC(C)(C)NC(=S)N/N=C/c1cccc(O)c1O`, for which the IC90 is above 12.3 µM. Also, the IC50 under setting [1] was above 12.3 µM.

For the molecule `N#Cc1nc(-c2ccccc2)nc2[nH]c(-c3ccccc3)c(C#N)c12`, the IC90 worked out at 9.81 µM. Moreover, the IC50 (FFLUC_HILL_SLOPE 4.02, FFLUC_R_SQUARED 0.58, HEPG2TOX_HILL_SLOPE 1.18, HEPG2TOX_R_SQUARED 0.976, PBLUC_HILL_SLOPE 16.6, PBLUC_R_SQUARED 0.228, read-out: LUCIFERASE INFECTION ASSAY - IC50) was 8.59 µM.

As to `COc1ccc(CCNC(=O)c2ccccc2NC(=O)c2cc(OC)c(OC)c(OC)c2)cc1OC`, the IC90 is above 6.67 µM. For the setting “PBLUC_HILL_SLOPE 2.16, PBLUC_R_SQUARED 0.652, read-out: LUCIFERASE INFECTION ASSAY - IC50”, the IC50 was 3.54 µM.

Turning to `Fc1ccc(C(CCNCc2ccccn2)c2ccc(Cl)cc2)cc1` (stereo unspecified), the IC90 is above 9.3 µM. The IC50 (PBLUC_HILL_SLOPE 1.42, PBLUC_R_SQUARED 0.0971, read-out: LUCIFERASE INFECTION ASSAY - IC50) was found to be 5.49 µM.

For the molecule `O=C(NC1CC1)c1cccc(NC(C(=O)Nc2cc(C(F)(F)F)ccc2Cl)c2ccccc2)c1` (stereo unspecified), the IC90 is above 10 µM. For the same molecule, the IC50 under setting [1] was 9.94 µM.

`Cc1nc(=O)c2c(C)c(C(=O)OCC(=O)/C=C3\N(C)c4ccccc4C3(C)C)sc2[nH]1`: the IC90 was above 10 µM. For the same molecule, the IC50 (HEPG2TOX_HILL_SLOPE 0.0151, HEPG2TOX_R_SQUARED 0.0709, PBLUC_HILL_SLOPE 3.19, PBLUC_R_SQUARED 0.563, read-out: LUCIFERASE INFECTION ASSAY - IC50) came to 6.65 µM.

In the case of `CN(Cc1ccccc1)S(=O)(=O)N1CCC(C(O)(c2ccccc2)c2ccccc2)CC1`, the IC90 amounted to 9.51 µM. Also, the IC50 (PBLUC_HILL_SLOPE 2.67, PBLUC_R_SQUARED 0.571, read-out: LUCIFERASE INFECTION ASSAY - IC50) worked out at 4.18 µM.

Regarding `COc1ccc(NCC2(c3ccnc(-c4ccccc4Cl)c3)CC2)cc1`, the IC90 was found to be 8.59 µM. Besides, the IC50 (HEPG2TOX_HILL_SLOPE 7.95, HEPG2TOX_R_SQUARED 0.722, PBLUC_HILL_SLOPE 6.14, PBLUC_R_SQUARED 0.58, read-out: LUCIFERASE INFECTION ASSAY - IC50) turned out to be 6.01 µM.

As for `CC1CCN(Cc2nc(SC3CCCC3)c3c4c(sc3n2)CCC4)CC1`, the IC90 is above 10 µM. Moreover, the IC50 (PBLUC_HILL_SLOPE 9.85, PBLUC_R_SQUARED 0.167, read-out: LUCIFERASE INFECTION ASSAY - IC50) was 9.59 µM.

For `Cn1c(Nc2ccccc2)nc2cnc(-c3cccc4ccccc34)cc21`, the 90% effect concentration (IC90) came to 4.66 µM. Moreover, the IC50 (HEPG2TOX_HILL_SLOPE 1.56, HEPG2TOX_R_SQUARED 0.963, PBLUC_HILL_SLOPE 1.41, PBLUC_R_SQUARED 0.827, read-out: LUCIFERASE INFECTION ASSAY - IC50) came out at 0.98 µM.

Regarding `COc1cccc(CC(=O)Nc2ccc(N3CCNC(=O)C3)c(Cl)c2)c1`, the IC90 is above 10 µM. The IC50 under setting [1] was above 10 µM.

As to `CCCN1CCc2nc(Nc3ccc(Oc4ccccc4)cc3)ncc2C1`, the IC90 is above 9.16 µM. The IC50 under setting [1] is above 9.16 µM.

Regarding `C=CCn1c(C)cc(C(=O)Cn2nnc(-c3ccccc3C)n2)c1C`, the IC90 was above 10 µM. In addition, under “PBLUC_HILL_SLOPE 0.683, PBLUC_R_SQUARED 0.219, read-out: LUCIFERASE INFECTION ASSAY - IC50”, the IC50 is above 10 µM.

As to `O=C(Cn1cc(C(F)(F)F)ccc1=O)N/N=C/c1c2ccccc2cc2ccccc12`, the IC90 was above 10 µM. Moreover, the half-inhibitory concentration (IC50) (PBLUC_HILL_SLOPE 2.42, PBLUC_R_SQUARED 0.423, read-out: LUCIFERASE INFECTION ASSAY - IC50) worked out at 5.16 µM.

On to `CC(C)(C)C(=O)CSc1nnc(-c2ccccc2F)[nH]1`, for which the IC90 is above 10 µM. The IC50 under setting [1] was above 10 µM.
